24 compounds from US8853424B2 (Japan Science and Technology Agency, priority 2008, dated 2014) can be followed below.

In assay [1] the test system is transglutaminase (TGase). The assay can be described thus: Measurement of TG (TGase inhibitory activity, monodansyl cadaverine / N,N-dimethylcasein fluorescence, FDSS 3000). It counts as biochemical. The gist of the method: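 Compound (1 μL of 10 mM stock) added to 0.1 mL reaction: 100 mM HEPES-NaOH pH 7.5, 1 mM CaCl2, 20 μM monodansyl cadaverine, 0.05 mg/mL N,N-dimethylcasein, 5 μg/mL TGase. Rate of fluorescence change at 340 nm measured; DMSO control set to 100; TG50 is the concentration halving activity.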

Assay [2] concerns Truncated N-terminal huntington 150 Q-EGFP-Neuron 2a cells. Description: Measurement of x-Fold (polyglutamine aggregation inhibitory activity). It counts as cell-based. How it is done: In the present invention, the polyglutamine aggregation inhibitory activity (x-Fold) can be measured, for example, by the method described in the Example.
The number of the aggregated cells, and the total number of cells were counted by Array Scan V T1 (manufactured by Cellomics, Pittuburg, USA), and the ratio of the aggregated cells to the total number of cells was determined (x-Fold). […]

Where [3] appears, read: TGase activity with compound (10 mM, 1 μL in 0.1 ml enzyme reaction solution), DMSO control taken as 100.
Where [4] appears, read: TGase inhibitory activity value, Table 1.
Setting [5] is: polyglutamine aggregation inhibitory activity, Table 1.
[6] abbreviates: ratio of aggregated cells to total number of cells, compound 20 μM, 20 hr, almost 1 without compound, smaller = stronger inhibition.

`CCN(CC)CC.CN(C)c1ccc2c(-c3ccc(NC(=S)NCC(N)C(=O)OB(c4ccccc4)c4ccccc4)cc3C(=O)[O-])c3ccc(=[N+](C)C)cc-3oc2c1` (stereo not shown) [Example 175, diphenyl(tetramethylrhodamine 2,3-diaminopropionate-O,N)borane]: the “TGase activity remaining (% of DMSO control = 100)” value in assay [1] (setting [3]) and in assay [1] (setting [4]) was 5 throughout. Besides, the x-Fold in assay [2] (setting [5]) and in assay [2] (setting [6]) was 0.89 in each case.
In the case of `CCN(CC)CC.CN(C)c1ccc2c(-c3ccc(NC(=S)NCCCCC(N)C(=O)OB(c4ccccc4)c4ccccc4)cc3C(=O)[O-])c3ccc(=[N+](C)C)cc-3oc2c1` (stereo not shown) [Example 176, diphenyl(tetramethylrhodamine 2,6-diaminocapronate-O,N)borane], the “TGase activity remaining (% of DMSO control = 100)” value in assay [1] (setting [3]) and in assay [1] (setting [4]) was 47 throughout. The x-Fold in assay [2] (setting [5]) and in assay [2] (setting [6]) was 1.06 each time.
For `NCCC(N)C(=O)OB(c1ccccc1)c1ccccc1` (stereo not shown) [Example 178], the “TGase activity remaining (% of DMSO control = 100)” value in assay [1] (setting [3]) came out at 142; in assay [1] (TGase inhibitory activity value, Table 1, listed as 2039) it was 142. The x-Fold is listed as 0.89 in assay [2] (polyglutamine aggregation inhibitory activity, Table 1, listed as 2039) and 0.89 in assay [2] (setting [6]).
Take `NCCCC(N)C(=O)OB(c1ccccc1)c1ccccc1` (stereo not shown) [Example 179, diphenyl(2,5-diaminopentanate-O,N)borane]: the “TGase activity remaining (% of DMSO control = 100)” value in assay [1] (setting [3]) amounted to 127; in assay [1] (TGase inhibitory activity value, Table 1, listed as 2044), 127. For the same compound, the x-Fold in assay [2] (polyglutamine aggregation inhibitory activity, Table 1, listed as 2044) came out at 0.99; in assay [2] (setting [6]), 0.99.
For `Cc1ccc(B(OC(=O)c2ccccc2N)c2ccc(C)c(Cl)c2)cc1Cl` [Example 180, di(3-chloro-4-methylphenyl)(anthranate-O,N)borane], the “TGase activity remaining (% of DMSO control = 100)” value in assay [1] (setting [3]) and in assay [1] (setting [4]) was 35 each time. The x-Fold in assay [2] (setting [5]) and in assay [2] (setting [6]) was 0.98 throughout.
`NCCOB(c1ccc(C(F)(F)F)cc1)c1ccc(C(F)(F)F)cc1` [Example 181, di(trifluoromethylphenyl) 2-aminoethylborinate]: the “TGase activity remaining (% of DMSO control = 100)” value in assay [1] (setting [3]) is reported as 54. Moreover, the x-Fold in assay [2] (setting [6]) was 0.69.
Consider `Cc1ccc(B(OC(=O)C(N)CCC(N)=O)c2ccc(C)c(Cl)c2)cc1Cl` (stereo not shown) [Example 182, di(3-chloro-4-methylphenyl)(glutaminate-O,N)borane], for which the “TGase activity remaining (% of DMSO control = 100)” value in assay [1] (setting [3]) and in assay [1] (setting [4]) was 137 in each case. Besides, the x-Fold in assay [2] (setting [5]) and in assay [2] (setting [6]) was 1.01 each time.
On to `CCCCB(CCCC)OC(=O)C(N)CC(N)=O` (stereo not shown) [Example 183, dibutyl(asparagine-O,N)borane], for which the “TGase activity remaining (% of DMSO control = 100)” value in assay [1] (setting [3]) and in assay [1] (setting [4]) was 91 each time. Moreover, the x-Fold in assay [2] (setting [5]) and in assay [2] (setting [6]) was 1.02 throughout.
For the compound `c1ccc(B(OCc2ccccn2)c2ccc(COCc3ccc(B(OCc4ccccn4)c4ccccc4)cc3)cc2)cc1` [Example 184, di(4-(phenyl-2-pyridylmethoxyboryl)benzyl)ether], the “TGase activity remaining (% of DMSO control = 100)” value in assay [1] (setting [3]) and in assay [1] (setting [4]) was 94 each time. Moreover, the x-Fold in assay [2] (setting [5]) and in assay [2] (setting [6]) was 0.95 in each case.
`OB(Cc1ccc(OCc2ccc(B(O)c3ccccc3)cc2)cc1)Cc1ccc(OCc2ccc(B(O)c3ccccc3)cc2)cc1` [Example 187, bis((4,4′-phenylhydroxyboryl)benzyloxybenzyl)hydroxyborane]: the “TGase activity remaining (% of DMSO control = 100)” value in assay [1] (setting [3]) and in assay [1] (setting [4]) was 106 throughout. The x-Fold in assay [2] (setting [5]) and in assay [2] (setting [6]) was 0.97 each time.
Turning to `CCCNCCOB(c1ccc(C(F)(F)F)cc1)c1ccc(C(F)(F)F)cc1` [Example 188, di(trifluoromethylphenyl) 2-propylaminoethylborinate], in assay [1] (setting [3]), the “TGase activity remaining (% of DMSO control = 100)” value is 91. Further, the x-Fold in assay [2] (setting [6]) worked out at 0.98.
With `NCCOB(c1ccccc1)c1ccc(COCc2ccc(B(OCCN)c3ccc(COCc4ccc(B(OCCN)c5ccccc5)cc4)cc3)cc2)cc1` [Example 189, bis((4,4′-phenylaminoethoxyboryl)benzyloxybenzyl)aminoethoxyborane], the “TGase activity remaining (% of DMSO control = 100)” value in assay [1] (setting [3]) and in assay [1] (setting [4]) was 119 each time. For the same compound, the x-Fold in assay [2] (setting [5]) and in assay [2] (setting [6]) was 0.94 throughout.
For `FC(F)(F)c1ccc(C(OB(c2ccccc2)c2ccc(COCc3ccc(B(OC(c4ccc(C(F)(F)F)cc4)c4ccccn4)c4ccc(COCc5ccc(B(OC(c6ccc(C(F)(F)F)cc6)c6ccccn6)c6ccccc6)cc5)cc4)cc3)cc2)c2ccccn2)cc1` (stereo not shown) [Example 192, bis((4,4′-phenyl 2-pyridyl-4-trifluoromethylphenylmethoxyboryl)benzyloxybenzyl) 2-pyridyl-4-trifluoromethyl phenylmethoxyborane], the “TGase activity remaining (% of DMSO control = 100)” value in assay [1] (setting [3]) and in assay [1] (setting [4]) was 102 in each case. In addition, the x-Fold in assay [2] (setting [5]) and in assay [2] (setting [6]) was 0.95 in each case.
For `NC(=O)C1NCCNC1C(=O)OB(c1ccccc1)c1ccccc1` (stereo not shown) [Example 193, diphenyl(2-piperazine-3-carboxyamide-carboxy)borane], the “TGase activity remaining (% of DMSO control = 100)” value in assay [1] (setting [3]) and in assay [1] (setting [4]) was 92 in each case. In addition, the x-Fold in assay [2] (setting [5]) and in assay [2] (setting [6]) was 1.03 throughout.
For the compound `CSCCC(N)C(=O)OB(c1ccccc1)c1ccccc1` (stereo not shown) [Example 194, diphenyl(methionate-O,N)borane], the “TGase activity remaining (% of DMSO control = 100)” value in assay [1] (setting [3]) and in assay [1] (setting [4]) was 106 each time. The x-Fold in assay [2] (setting [5]) and in assay [2] (setting [6]) was 1.03 each time.
Consider `c1ccc(B(ON2CCCCC2)c2cccc(Oc3cccc(B(ON4CCCCC4)c4ccccc4)c3)c2)cc1` [Example 195, di(phenyl 3-piperidinooxyborylphenyl)ether], for which the “TGase activity remaining (% of DMSO control = 100)” value in assay [1] (setting [3]) and in assay [1] (setting [4]) was 115 in each case. Further, the x-Fold in assay [2] (setting [5]) and in assay [2] (setting [6]) was 0.77 in each case.
Take `c1ccc(B2OCCN3CCN(CCOB(c4ccccc4)c4ccc(cc4)Oc4ccc2cc4)CC3)cc1` [Example 196, 4,4′-(phenylpiperazino-O,O-ethoxyboryl)phenylether]: the “TGase activity remaining (% of DMSO control = 100)” value in assay [1] (setting [3]) and in assay [1] (setting [4]) was 117 each time. Further, the x-Fold in assay [2] (setting [5]) and in assay [2] (setting [6]) was 0.90 each time.
Regarding `CN(C)CCOB(c1ccccc1)c1ccc(COCc2ccc(B(OCCN(C)C)c3ccccc3)cc2)cc1` [Example 198, bis(4,4′-(phenyldimethylaminoethoxyboryl)benzyl)ether], the “TGase activity remaining (% of DMSO control = 100)” value in assay [1] (setting [3]) is listed as 28; in assay [1] (TGase inhibitory activity value, Table 1, listed as 3003) it was 28. In addition, the x-Fold in assay [2] (polyglutamine aggregation inhibitory activity, Table 1, listed as 3003) is recorded as 0.8; in assay [2] (setting [6]), 0.8.
As to `c1ccc(CNCCOB(c2ccccc2)c2cccc(COCc3cccc(B(OCCNCc4ccccc4)c4ccccc4)c3)c2)cc1` [Example 199, bis(3,3′-(phenylbenzylaminoethoxyboryl)benzyl)ether], the “TGase activity remaining (% of DMSO control = 100)” value in assay [1] (setting [3]) and in assay [1] (setting [4]) was 3 throughout. For the same compound, the x-Fold in assay [2] (setting [5]) and in assay [2] (setting [6]) was 0.90 throughout.
With `Cc1c(Cl)cccc1B(O)c1cccc(Cl)c1C` [Example 200, di(3-chloro-2-methylphenyl)borinic acid], the “TGase activity remaining (% of DMSO control = 100)” value in assay [1] (setting [3]) came to 100. In addition, the x-Fold in assay [2] (setting [6]) amounted to 0.92.
Take `Cc1ccc(B(O)c2ccc(Oc3ccc(B(O)c4ccc(C)c(Cl)c4)cc3)cc2)cc1Cl` [Example 201, 4,4′-di((3-chloro-4-methylphenyl 2-hydroxyboryl)phenyl)ether]: the “TGase activity remaining (% of DMSO control = 100)” value in assay [1] (setting [3]) was determined as 99. The x-Fold in assay [2] (setting [6]) was found to be 0.57.
Regarding `c1ccc(B(OCc2ccccn2)c2cccc3ccccc23)cc1` [Example 202, phenyl naphthyl 2-pyridylmethylborinate], the “TGase activity remaining (% of DMSO control = 100)” value in assay [1] (setting [3]) and in assay [1] (setting [4]) was 91 each time. Besides, the x-Fold in assay [2] (setting [5]) and in assay [2] (setting [6]) was 0.94 in each case.
As for `CN(C)CCOB(c1ccccc1)c1cccc2ccccc12` [Example 203, phenyl naphthyl dimethylaminoethylborinate], the “TGase activity remaining (% of DMSO control = 100)” value in assay [1] (setting [3]) and in assay [1] (setting [4]) was 97 each time. Further, the x-Fold in assay [2] (setting [5]) and in assay [2] (setting [6]) was 0.97 in each case.
`c1ccc(CNCCOB(c2ccccc2)c2cccc3ccccc23)cc1` [Example 204, phenyl naphthyl benzylaminoethylborinate]: the “TGase activity remaining (% of DMSO control = 100)” value in assay [1] (setting [3]) and in assay [1] (setting [4]) was 61 each time. The x-Fold in assay [2] (setting [5]) and in assay [2] (setting [6]) was 0.79 each time.
